Results on 42 molecules are retold here after ChEMBL document CHEMBL4483862, “Open-source discovery of chemical leads for next-generation chemoprotective antimalarials” (2018).

The test system of the test is Plasmodium berghei. The test can be described thus: Luciferase/luciferin-expressing antifolate-resistant parasites were used to infect a culture of HepG2 cells that were pre-incubated with compounds. Infected hepatocytes emit light due to the luciferase reaction. Assay results are presented as the percent inhibition of light emission compared to control. […]. As to conditions: sporozoite; for IC90: read-out: LUCIFERASE INFECTION ASSAY - IC90. Format: functional.

[1] abbreviates: read-out: LUCIFERASE INFECTION ASSAY - IC50.

On to `CCCc1cc(=O)n2nc(Cc3ccccc3)c(-c3ccccc3)c2[nH]1`, for which the IC90 (in general, the point of the concentration-response curve where the effect stands at 90%) is greater than 9.61 µM. The IC50 – broadly, the concentration needed to halve the response being measured – (HEPG2TOX_HILL_SLOPE 6.09, HEPG2TOX_R_SQUARED 0.391, read-out: LUCIFERASE INFECTION ASSAY - IC50) is greater than 9.61 µM.
As for `Cc1ccc(C)c(CN2CCC3(CC2)C(=O)N(CCCc2cccnc2)C(=O)N3Cc2ccccc2)c1`, the IC90 was 5.55 µM. Also, the IC50 under setting [1] was 4.38 µM.
For `CCN(c1ccccc1)S(=O)(=O)c1cc(-c2oc3ccc(F)cc3c(=O)c2C)ccc1C`, the IC90 was greater than 10 µM. Also, the IC50 (PBLUC_HILL_SLOPE 4.38, PBLUC_R_SQUARED 0.421, read-out: LUCIFERASE INFECTION ASSAY - IC50) is 6.53 µM.
`COc1cc(-c2ccc(N3CCN(c4ccncc4)CC3)nc2)cc(OC)c1OC`: the IC90 was greater than 8.12 µM. Moreover, the IC50 (HEPG2TOX_HILL_SLOPE 1.45, HEPG2TOX_R_SQUARED 0.424, PBLUC_HILL_SLOPE 3.58, PBLUC_R_SQUARED 0.452, read-out: LUCIFERASE INFECTION ASSAY - IC50) came to 6.09 µM.
As to `O=C(Nc1ncccc1O)c1ccc(N2CCOCC2)nc1`, the IC90 stood at 4.08 µM. In addition, the IC50 (FFLUC_HILL_SLOPE 6.17, FFLUC_R_SQUARED 0.111, PBLUC_HILL_SLOPE 1.25, PBLUC_R_SQUARED 0.907, read-out: LUCIFERASE INFECTION ASSAY - IC50) came to 0.705 µM.
For the molecule `Cc1ccc(CN2CCC3(CC2)C(=O)N(C(C)C)C(=O)N3CCc2ccccc2)o1`, the IC90 was greater than 8.06 µM. Moreover, the IC50 (HEPG2TOX_HILL_SLOPE 8.85, HEPG2TOX_R_SQUARED 0.516, read-out: LUCIFERASE INFECTION ASSAY - IC50) was greater than 8.06 µM.
Turning to `COc1ccc(/C=C/C2=NNC(=O)CC2)cc1`, the IC90 was greater than 14.3 µM. Besides, the IC50 (HEPG2TOX_HILL_SLOPE 0.708, HEPG2TOX_R_SQUARED 0.9, read-out: LUCIFERASE INFECTION ASSAY - IC50) was greater than 14.3 µM.
Regarding `Cc1onc(-c2ccccc2Cl)c1NC(=O)Nc1cc(C(F)(F)F)cc(C(F)(F)F)c1`, the IC90 came out at 6.51 µM. In addition, the IC50 (PBLUC_HILL_SLOPE 3.23, PBLUC_R_SQUARED 0.494, read-out: LUCIFERASE INFECTION ASSAY - IC50) turned out to be 3.3 µM.
In the case of `C/C(c1cccs1)=[N+](/[O-])C(C)/C(=N/O)c1ccco1` (centres undefined), the IC90 is greater than 10 µM. Moreover, the IC50 under setting [1] is greater than 10 µM.
As for `Cc1ccc(-n2nnnc2-c2cnc3ccccc3c2-c2ccccc2)cc1`, the IC90 was greater than 9.08 µM. In addition, the IC50 under setting [1] was greater than 9.08 µM.
In the case of `Cc1oc(-c2cccs2)nc1CC(=O)NNC(=O)CC12CC3CC(CC(C3)C1)C2`, the IC90 amounted to 4.57 µM. Further, the IC50 (PBLUC_HILL_SLOPE 9.4, PBLUC_R_SQUARED 0.433, read-out: LUCIFERASE INFECTION ASSAY - IC50) stood at 3.62 µM.
On to `CCCCCCCCCCCc1n[nH]c(=S)n1-c1ccccc1C(F)(F)F`, for which the IC90 is greater than 8.26 µM. Besides, the IC50 (FFLUC_HILL_SLOPE 1.62, FFLUC_R_SQUARED 0.783, read-out: LUCIFERASE INFECTION ASSAY - IC50) is greater than 8.26 µM.
On to `CC(C)c1noc(CCC(=O)Nc2ccc(F)cc2F)n1`, for which the IC90 was greater than 10 µM. For the same molecule, the IC50 under setting [1] is greater than 10 µM.
As for `Cc1ccc2nc(CNc3cc(Cl)ccc3N3CCCC3)cc(=O)n2c1`, the IC90 is greater than 10 µM. In addition, under setting [1], the IC50 was greater than 10 µM.
Consider `CC1CCCC(C)N1CC(O)COC1CCC(C(C)(C)C)CC1` (centres undefined), for which the IC90 came to 3.62 µM. For the same molecule, the IC50 (HEPG2TOX_HILL_SLOPE 11.8, HEPG2TOX_R_SQUARED 0.0956, PBLUC_HILL_SLOPE 13.2, PBLUC_R_SQUARED 0.651, read-out: LUCIFERASE INFECTION ASSAY - IC50) amounted to 3.06 µM.
Take `O=C(CN1CCN(C(=O)/C=C/c2ccccc2[N+](=O)[O-])CC1)Nc1ccc(Cl)c(C(F)(F)F)c1`: the IC90 is greater than 10 µM. Besides, the IC50 under setting [1] is greater than 10 µM.
For the molecule `O=C(NCc1cc(Cl)c2c(c1)OCCCO2)c1cnn(Cc2ccccc2)c1`, the IC90 was greater than 10 µM. In addition, the IC50 (HEPG2TOX_HILL_SLOPE 3.36, HEPG2TOX_R_SQUARED 0.962, PBLUC_HILL_SLOPE 1.54, PBLUC_R_SQUARED 0.197, read-out: LUCIFERASE INFECTION ASSAY - IC50) is 9.57 µM.
Regarding `COc1cc(-c2cnc3sc(NCc4cccs4)nn23)ccc1O`, the IC90 is greater than 9.21 µM. Moreover, the IC50 under setting [1] is greater than 9.21 µM.
For `CCCCNC(=O)c1c(NC(=O)c2c(F)cccc2F)nc2ccc(C)cn12`, the IC90 is 6.69 µM. Moreover, under setting [1], the IC50 is 5.12 µM.
For `CC(Sc1nc2ccccc2c(=O)n1C)C(=O)Nc1cc([N+](=O)[O-])ccc1Cl` (centres undefined), the IC90 is greater than 10 µM. The IC50 (HEPG2TOX_HILL_SLOPE 7.72, HEPG2TOX_R_SQUARED 0.92, read-out: LUCIFERASE INFECTION ASSAY - IC50) was greater than 10 µM.
For the molecule `Cn1ncc(C(C#N)c2nc3ccccc3s2)c(Cl)c1=O` (centres undefined), the IC90 is greater than 10 µM. For the same molecule, under setting [1], the IC50 was greater than 10 µM.
For the molecule `COc1ccc(O)c(C(=O)c2cnc(Nc3nc(C)c4ccccc4n3)nc2)c1`, the IC90 is greater than 10 µM. Besides, for the setting “FFLUC_HILL_SLOPE 8.56, FFLUC_R_SQUARED 0.251, read-out: LUCIFERASE INFECTION ASSAY - IC50”, the IC50 was greater than 10 µM.
`O=C1NC(=O)N2CSCC12` (centres undefined): the IC90 was greater than 20.9 µM. Moreover, the IC50 under setting [1] is greater than 20.9 µM.
As to `O=C1CSC(=N/N=C2\SC(CC(=O)Nc3ccc(Br)cc3)C(=O)N2Cc2ccco2)N1` (centres undefined), the IC90 is greater than 10 µM. Under “HEPG2TOX_HILL_SLOPE 1.67, HEPG2TOX_R_SQUARED 0.878, PBLUC_HILL_SLOPE 0.95, PBLUC_R_SQUARED 0.607, read-out: LUCIFERASE INFECTION ASSAY - IC50”, the IC50 was 5.04 µM.
As for `Cc1[nH]c2ccccc2c1C1=NNC(=NCc2ccc3c(c2)OCO3)SC1`, the IC90 was greater than 10 µM. The IC50 (FFLUC_HILL_SLOPE 2.18, FFLUC_R_SQUARED 0.288, PBLUC_HILL_SLOPE 2.54, PBLUC_R_SQUARED 0.596, read-out: LUCIFERASE INFECTION ASSAY - IC50) turned out to be 4.55 µM.
As for `CS(=O)(=O)C(C#N)=Cc1ccccc1OCc1c(Cl)cccc1Cl`, the IC90 is greater than 8.63 µM. The IC50 (FFLUC_HILL_SLOPE 9.87, FFLUC_R_SQUARED 0.717, read-out: LUCIFERASE INFECTION ASSAY - IC50) is greater than 8.63 µM.
For the molecule `Cc1ccc2nc(NC(=O)c3ccc(Cl)cc3)c(C(=O)NC3CCCC3)n2c1`, the IC90 came to 3.09 µM. In addition, the IC50 (HEPG2TOX_HILL_SLOPE 3.44, HEPG2TOX_R_SQUARED 0.175, PBLUC_HILL_SLOPE 15.5, PBLUC_R_SQUARED 0.331, read-out: LUCIFERASE INFECTION ASSAY - IC50) worked out at 2.68 µM.
For `CC1CCN(CC(=O)Nc2cccc(C(=O)Nc3cccc(C(F)(F)F)c3)c2)CC1`, the concentration for an effect of 90% (IC90) is greater than 10 µM. The IC50 under setting [1] was greater than 10 µM.
For `CNS(=O)(=O)Cc1ccccc1CNCc1ccc(OC(F)F)cc1`, the IC90 is greater than 10 µM. Also, under setting [1], the IC50 is greater than 10 µM.
Consider `CC1CCc2c(sc3nc(CN4CCOCC4)nc(Oc4ccc(Cl)c5cccnc45)c23)C1` (centres undefined), for which the IC90 is greater than 10 µM. Moreover, the IC50 under setting [1] is greater than 10 µM.
Turning to `CCOC(=O)c1sc(SC)c2c1CCc1conc1-2`, the IC90 is greater than 11.2 µM. The IC50 under setting [1] was greater than 11.2 µM.
Consider `CN(C)S(=O)(=O)c1cccc(C(=O)N(Cc2ccccc2)CC(O)COC(c2ccccc2)c2ccccc2)c1` (centres undefined), for which the IC90 was greater than 10 µM. Besides, the IC50 under setting [1] is greater than 10 µM.
As to `Cc1cc2ccccc2n1CC(=O)NCc1ccc(NC(=O)c2ccco2)cc1`, the IC90 was greater than 10 µM. Also, under setting [1], the IC50 was found to be 5.73 µM.
For the molecule `O=C(Cc1coc2cc3c(cc12)CCC3)OCc1nccn1C(F)F`, the IC90 is greater than 10 µM. The IC50 (PBLUC_HILL_SLOPE 0.616, PBLUC_R_SQUARED 0.411, read-out: LUCIFERASE INFECTION ASSAY - IC50) is greater than 10 µM.
Consider `Cn1ccnc1Sc1c[nH]c(=S)nc1-c1ccc(Cl)cc1`, for which the IC90 was 9.04 µM. Besides, where the note is “FFLUC_HILL_SLOPE 122, FFLUC_R_SQUARED 0.312, PBLUC_HILL_SLOPE 4.61, PBLUC_R_SQUARED 0.38, read-out: LUCIFERASE INFECTION ASSAY - IC50”, the 50% inhibitory concentration (IC50) turned out to be 5.61 µM.
With `Cc1ccc(NC(=O)C2(C)CCN2Cc2ccccc2Cl)cc1O` (centres undefined), the 90% effect concentration (IC90) is greater than 9.57 µM. Moreover, the IC50 (PBLUC_HILL_SLOPE 11.9, PBLUC_R_SQUARED 0.388, read-out: LUCIFERASE INFECTION ASSAY - IC50) was 8.78 µM.
Take `COC(=O)c1noc(C)c1-c1ccnn1C(=O)Nc1cccc(Cl)c1`: the IC90 stood at 8.47 µM. Also, the IC50 (PBLUC_HILL_SLOPE 10.3, PBLUC_R_SQUARED 0.543, read-out: LUCIFERASE INFECTION ASSAY - IC50) came to 6.84 µM.
As to `O=C1C=C/C(=N\Nc2ccc3ncsc3c2)c2cccnc21`, the IC90 was greater than 10 µM. Further, the IC50 (HEPG2TOX_HILL_SLOPE 2.28, HEPG2TOX_R_SQUARED 0.978, PBLUC_HILL_SLOPE 13.8, PBLUC_R_SQUARED 0.454, read-out: LUCIFERASE INFECTION ASSAY - IC50) amounted to 8.95 µM.
Consider `O=C(Nc1nc(-c2cccs2)cs1)c1c[nH]c(C(=O)N2CCCC2)c1`, for which the IC90 is greater than 10 µM. For the same molecule, the IC50 under setting [1] was greater than 10 µM.
As to `NS(=O)(=O)c1ccc(CCNc2nc(-c3ccc(Cl)cc3)nc3sc4c(c23)CCC4)cc1`, the IC90 is greater than 10 µM. For the same molecule, the IC50 (FFLUC_HILL_SLOPE 5.22, FFLUC_R_SQUARED 0.196, PBLUC_HILL_SLOPE 2.11, PBLUC_R_SQUARED 0.629, read-out: LUCIFERASE INFECTION ASSAY - IC50) is 7.12 µM.
For `COCCn1c(C)cc(C(=O)CN2C(=O)NC(C)(c3ccc(C(C)(C)C)cc3)C2=O)c1C` (centres undefined), the IC90 was greater than 10 µM. Besides, the IC50 (PBLUC_HILL_SLOPE 3.36, PBLUC_R_SQUARED 0.275, read-out: LUCIFERASE INFECTION ASSAY - IC50) came out at 6.15 µM.
As to `CCCCN1C(=O)c2ccc(C(=O)C(C#N)c3nc4ccccc4[nH]3)cc2C1=O` (centres undefined), the IC90 was greater than 10 µM. For the same molecule, the IC50 under setting [1] is greater than 10 µM.
